Results published in PubChem BioAssay AID1963441 (Molecular Pharmacology Branch, DTP, NCI, 2024).

System: NCI-H1876 complex spheroid growth, % test/control
Test: Anticancer human tumor NCI-H1876 cell line growth inhibition [Asc];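 further: compound exposure lasted 7 days starting three days after seeding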;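 on viability, T/C: 100% = DMSO vehicle control wells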
Details: for IC50: curve of first compound; for viability, T/C: stronger effect = lower value; active means viability on the fitted dose curve at most 10% of control; inactive means the rest
Procedure, shortened: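 Tumor cells were grown as complex spheroids with human endothelial cells (HUVEC) and human mesenchymal stem cells as stroma. Agents were tested alone and in combination, in half-log steps down from the clinical Cmax, or from 10 microM where Cmax was unknown.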

C=CC(=O)N1CCN(c2nc(=O)n(-c3c(C)ccnc3C(C)C)c3nc(-c4c(O)cccc4F)c(F)cc23)C(C)C1 (configuration not stated) + CNC(C)C(=O)NC1CN(S(=O)(=O)c2cccc(S(=O)(=O)N3CCC4CCC(C(=O)NC(c5ccccc5)c5ccccc5)N4C(=O)C(NC(=O)C(C)NC)C3)c2)CCC2CCC(C(=O)NC(c3ccccc3)c3ccccc3)N2C1=O
inactive: viability, T/C (second compound 0.00316 µM, first compound 0.0316 µM) 103% | viability, T/C (second compound 0.00316 µM, first compound 0.1 µM) 87.6% | viability, T/C (second compound 0.00316 µM, first compound 0.316 µM) 115% | viability, T/C (second compound 0.00316 µM, first compound 1 µM) 94.9% | viability, T/C (second compound 0.00316 µM, first compound 3.16 µM) 121% | viability, T/C (second compound 0.00316 µM, first compound 10 µM) 131% | viability, T/C (second compound 0.01 µM, first compound 0.0316 µM) 104% | viability, T/C (second compound 0.01 µM, first compound 0.1 µM) 99% | viability, T/C (second compound 0.01 µM, first compound 0.316 µM) 99.1% | viability, T/C (second compound 0.01 µM, first compound 1 µM) 99.3% | viability, T/C (second compound 0.01 µM, first compound 3.16 µM) 107% | viability, T/C (second compound 0.01 µM, first compound 10 µM) 111% | viability, T/C (second compound 0.0316 µM, first compound 0.0316 µM) 102% | viability, T/C (second compound 0.0316 µM, first compound 0.1 µM) 101% | viability, T/C (second compound 0.0316 µM, first compound 0.316 µM) 121% | viability, T/C (second compound 0.0316 µM, first compound 1 µM) 102% | viability, T/C (second compound 0.0316 µM, first compound 3.16 µM) 116% | viability, T/C (second compound 0.0316 µM, first compound 10 µM) 114% | viability, T/C (second compound 0.1 µM, first compound 0.0316 µM) 100% | viability, T/C (second compound 0.1 µM, first compound 0.1 µM) 106% | viability, T/C (second compound 0.1 µM, first compound 0.316 µM) 104% | viability, T/C (second compound 0.1 µM, first compound 1 µM) 106% | viability, T/C (second compound 0.1 µM, first compound 3.16 µM) 114% | viability, T/C (second compound 0.1 µM, first compound 10 µM) 106% | viability, T/C (second compound 0.316 µM, first compound 0.0316 µM) 114% | viability, T/C (second compound 0.316 µM, first compound 0.1 µM) 101% | viability, T/C (second compound 0.316 µM, first compound 0.316 µM) 100% | viability, T/C (second compound 0.316 µM, first compound 1 µM) 101% | viability, T/C (second compound 0.316 µM, first compound 3.16 µM) 115% | viability, T/C (second compound 0.316 µM, first compound 10 µM) 109% | viability, T/C (second compound 1 µM, first compound 0.0316 µM) 111% | viability, T/C (second compound 1 µM, first compound 0.1 µM) 91.9% | viability, T/C (second compound 1 µM, first compound 0.316 µM) 118% | viability, T/C (second compound 1 µM, first compound 1 µM) 113% | viability, T/C (second compound 1 µM, first compound 3.16 µM) 116% | viability, T/C (second compound 1 µM, first compound 10 µM) 117%
> 10 µM: IC50 (second compound 0.00316 µM) | IC50 (second compound 0.01 µM) | IC50 (second compound 0.0316 µM) | IC50 (second compound 0.1 µM) | IC50 (second compound 0.316 µM) | IC50 (second compound 1 µM)
